Measurements from US20230010299A1, “HETEROCYCLIC TRPML1 AGONISTS” (LIBRA THERAPEUTICS, INC., priority 2019, published 2023).

Assays:
TRPML1 [1] = biological target: T1, TRPML1 (Homo sapiens, UniProt Q9GZU1); experiment: Cellular TRPML1 assay (FLIPR TETRA, GCaMP6f calcium read-out); type: cell-based; details: HEK T-REx/GCaMP6f/TRPML1 cells; Ca2+ response over 300 s, normalized to ML-SA1 50 μM; Ca2+ free or Optimem condition not given; read-out: Ec50 (Activity of TRPML1 agonists)
T1 construct: expressed in transfected cells
T1 sequence (Q9GZU1 whole entry): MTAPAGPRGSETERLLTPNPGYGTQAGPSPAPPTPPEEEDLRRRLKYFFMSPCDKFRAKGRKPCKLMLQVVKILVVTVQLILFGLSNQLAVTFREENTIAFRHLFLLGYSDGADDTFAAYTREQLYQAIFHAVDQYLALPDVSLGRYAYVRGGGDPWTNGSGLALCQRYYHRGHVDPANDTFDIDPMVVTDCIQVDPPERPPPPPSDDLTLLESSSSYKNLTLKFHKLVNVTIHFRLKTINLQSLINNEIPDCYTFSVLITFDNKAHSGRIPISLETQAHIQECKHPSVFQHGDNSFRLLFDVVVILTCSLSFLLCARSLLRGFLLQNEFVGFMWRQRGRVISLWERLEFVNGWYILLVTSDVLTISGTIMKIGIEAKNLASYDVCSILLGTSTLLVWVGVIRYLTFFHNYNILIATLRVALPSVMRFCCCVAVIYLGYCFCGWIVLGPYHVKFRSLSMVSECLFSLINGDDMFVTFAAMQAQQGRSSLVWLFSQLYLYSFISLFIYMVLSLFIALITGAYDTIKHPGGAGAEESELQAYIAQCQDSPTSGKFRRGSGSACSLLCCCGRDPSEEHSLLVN
Outline: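 HEK T-REx cells stably expressing TRPML1 and GCaMP6f, assayed 24 h after seeding in Ca2+-free Tyrode's (pH 7.4) or Opti-MEM. Compounds injected on FLIPR Tetra (0.5% DMSO) in dose-response from 100 μM (1:2) or 50 μM (1:3.16); fluorescence kinetics 300 s, referenced to 50 μM ML-SA1 stimulator control.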

TRPML1 [2] = biological target: T1, TRPML1; experiment: TRPML1 automated patch-clamp (QPatch 16X); type: cell-based; details: HEK T-REx/GcaMP6f/TRPML1 cells, current with compound/current in vehicle, extracellular pH 4.6
Description: TRPML1—Automated Patch-Clamp
HEK T-REx/GcaMP6f/TRPML1 cells were cultured in DMEM High Glucose (Lonza BioWhittaker cat. BE12-604F/U1; 500 mL) supplemented with Fetal Bovine Serum TET-FREE (Euroclone cat. EC S0182L; 50 mL, Penicillin-Streptomycin (BioWhittaker, cat. DE17-602E; 5 mL of 100× Solution), G418 (Sigma, cat. G8168; 0.25 mg/ml) and Zeocyn (InvivoGen, cat. ant-zn-1; 50 μg/ml).
HEK T-REx/GcaMP6f/TRPML1 cells were seeded 48 or 72 hours before experiment, at a concentration of 8*10^6/4*10^6 cells onto a T225 flask. Just before the experiments, cells were washed twice with D-PBS w/o Ca^2+/Mg^2+ (Euroclone cat. ECB4004L) and detached from the flask with trypsin-EDTA (Sigma cat. T4174; diluted 1/10). Cells were then re-suspended in the suspension solution: 25 mL EX-CELL ACF CHO medium(Sigma cat. C5467); 0.625 mL HEPES (Sigma cat. H0887); 0.25 mL of 100× Penicillin/Streptomycin (Euroclone cat. ECB3001D), 0.1 mL of Soybean Trypsin Inhibitor 10 mg/mL (Sigma cat. T6522) and placed on the QPatch 16X.
Dilution from stock were prepared just before the experiments in the extracellular solution (0.25% final DMSO concentration). DMSO solution was obtained from AppliChem (cat. A3672)
Patch Clamp Solutions: • Intracellular solution (mM): 120 CsMeSO3, 4 NaCl, 2 MgCl2, 10 EGTA, 20 HEPES, 2 Mg-ATP (pH 7.2 with CsOH). • Extracellular solution (mM): 140 NaGluconate, 5 KCl, 1 MgCl2, 2 CaCl2), 10 Glucose, 10 MES (pH 4.6 with HCl).
Patch Clamp Analysis—QPatch 16X
For the voltage clamp experiments on TRPML1, data were sampled at 5 KHz. After establishment of the seal and the passage in the whole cell configuration, the cells were held at −20 mV and the TRPML1 current was evoked using the voltage protocol illustrated in FIG. 2, applied every 5 sec. (50 ms at −20 mV; 20 ms at −120 mV, 1000 ms ramp from −120 to […]; 20 ms at +40 mV, and back to −20 mV); in the absence (vehicle period, i.e. 0.25% DMSO) and in the presence of increasing concentrations (3) of the compound under investigation.
Agonists: For data collection, the Sophion proprietary software was used and the analysis was performed off-line using Excel and GraphPad Prism (V 8.00). Results are reported in Table 6, expressed as TRPML1 current fold increase evoked by the compound under investigation (i.e. current in the presence of the compound/current in vehicle).

| EC50 (TRPML1 [1]) [µM] | Qpatch Assay TRPML1 agonism Current fold increase Mean ± SEM (n) (TRPML1 [2]; 0.3 μM compound) | Qpatch Assay TRPML1 agonism Current fold increase Mean ± SEM (n) (TRPML1 [2]; 3.0 μM compound) | Qpatch Assay TRPML1 agonism Current fold increase Mean ± SEM (n) (TRPML1 [2]; 30 μM compound) | SMILES |
| --- | --- | --- | --- | --- |
| 2.5 | 140 ± 44.1 (4) | 83.1 ± 34.0 (2) | 112 ± 38.1 (2) | Cc1ccc(S(=O)(=O)Nc2ccccc2N2CCC(C(=O)OC(C)(C)C)CC2)cc1 [Example 90] |
| 1.8 | 70.2 ± 13.8 (4) | 125.0 ± 31.0 (4) | 140.3 ± 36.8 (4) | Cc1ccc(S(=O)(=O)Nc2ccccc2N2CCN(C(=O)OC(C)(C)C)CC2)cc1 [Example 83, t-butyl 4-[2-(4-methylbenzenesulfonamido)phenyl]piperazine-1-carboxylate] |
| 1.6 | 17.7 ± 5.5 (4) | 206 ± 167 (2) | 260 ± 202 (2) | CN(C)S(=O)(=O)c1ccc(S(=O)(=O)Nc2ccccc2N2CCCCCC2)cc1 [Example 85, N4-[2-(azepan-1-yl)phenyl]-N 1 ,N1-dimethylbenzene-1,4-disulfonamide] |
| 6.9 | 0.68 ± 0.34 (3) | 16.5 ± 9.1 (3) | 166 ± 75.7 (3) | CN(C)S(=O)(=O)c1ccc(S(=O)(=O)Nc2ccccc2C2CCN(C(=O)OC(C)(C)C)CC2)cc1 [Example 78, f-butyl 4-{2-[4-(dimethylsulfamoyl)benzenesulfonamido]phenyl} piperidine-1-carboxylate] |
| 4.2 | 8.6 ± 1.3 (2) | 32.9 ± 3.5 (2) | 42.7 ± 1.4 (2) | COc1ccc(S(=O)(=O)Nc2ccccc2N2CCN(C(=O)OC(C)(C)C)CC2)cc1 [Example 84, t-butyl 4-[2-(4-methoxybenzenesulfonamido)phenyl]piperazine-1-carboxylate] |
| 6.5 | −0.066 ± 0.080 (3) | 3.9 ± 2.5 (3) | 125 ± 75.3 (3) | CC(C)CNC(=O)C1CCN(c2ccccc2NS(=O)(=O)c2ccc(S(=O)(=O)N(C)C)cc2)CC1 [Example 88, 1-{2-[4-(dimethylsulfamoyl)benzenesulfonamido]phenyl}-N-(2-methylpropyl)piperidine-4-carboxamide] |
| 3.3 | 3.1 ± 1.2 (3) | 21.7 ± 7.9 (3) | 58.8 ± 16.6 (3) | COc1ccc(S(=O)(=O)Nc2ccccc2N2CCC(C(=O)OC(C)(C)C)CC2)cc1 [Example 91] |
| 3.2 | 4.3 ± 2.0 (6) | 356 ± 69.7 (6) | 639 + 241 (3) | CN(C)S(=O)(=O)c1ccc(S(=O)(=O)NCc2ccccc2N2CCCCC2)cc1 [Example 74, N1,N1-dimethyl-N4-{[2-(piperidin-1-yl)phenyl]methyl}benzene-1,4-disulfonamide] |

The remaining lines, values behind:

| SMILES | EC50 (TRPML1 [1]) [µM] | Qpatch Assay TRPML1 agonism Current fold increase Mean ± SEM (n) (TRPML1 [2]; 0.3 μM compound) | Qpatch Assay TRPML1 agonism Current fold increase Mean ± SEM (n) (TRPML1 [2]; 3.0 μM compound) | Qpatch Assay TRPML1 agonism Current fold increase Mean ± SEM (n) (TRPML1 [2]; 30 μM compound) |
| --- | --- | --- | --- | --- |
| CN(C)S(=O)(=O)c1ccc(S(=O)(=O)Nc2ccccc2N2CCN(C(=O)c3ccccc3)CC2)cc1 [Example 73, N4-[2-(4-benzoylpiperazin-1-yl)phenyl]-N1,N1-dimethylbenzene-1,4-disulfonamide] | 6.4 | −0.070 | −0.31 | 11.3 |
| COC(=O)N1CCN(c2ccccc2NS(=O)(=O)c2ccc(S(=O)(=O)N(C)C)cc2)CC1 [Example 52, methyl 4-{2-[4-(dimethylsulfamoyl)benzenesulfonamido]phenyl}piperazine-1-carboxylate] | 7.2 | 1.3 ± 1.0 (3) | 10.4 ± 3.8 (3) | 472.5 ± 267.9 (3) |
| CN(C)S(=O)(=O)c1ccc(S(=O)(=O)Nc2ccccc2N2CCC(Oc3ccccc3)CC2)cc1 [Example 24, N1,N1-dimethyl-N4-[2-(4-phenoxypiperidin-1-yl)phenyl]benzene-1,4-disulfonamide] | 2.1 | 4.6 ± 1.8 (4) | 168.8 ± 96.1 (4) | 687.7 (1) |
| CN(C)S(=O)(=O)c1ccc(S(=O)(=O)Nc2ccccc2N2CCC(OCc3ccccc3)CC2)cc1 [Example 25, N4-{2-[4-(benzyloxy)piperidin-1-yl]phenyl}-N1,N1-dimethylbenzene-1,4-disulfonamide] | 1.8 | 3.5 ± 1.8 (3) | 177.1 ± 38.2 (3) | 1013.8 (1) |
| CN(C)S(=O)(=O)c1ccc(S(=O)(=O)Nc2ccccc2N2CCN(C(=O)OCC(F)(F)F)CC2)cc1 [Example 53, 2,2,2-trifluoroethyl4-{2-[4-(dimethylsulfamoyl)benzenesulfonamido]phenyl}piperazine-1-carboxylate] | 3.6 | 1.9 ± 1.6 (3) | 88.3 ± 59.9 (3) | 257.4 ± 190.7 (3) |
| COC1CCN(c2ccccc2NS(=O)(=O)c2ccc(S(=O)(=O)N(C)C)cc2)CC1 [Example 26, N4-[2-(4-methoxypiperidin-1-yl)phenyl]-N1,N1-dimethylbenzene-1,4-disulfonamide] | 4.5 | 0.46 ± 0.16 (3) | 41.4 ± 21.1 | 390 ± 158 (3) |
